# Values quoted from earlier work, collected in publication PMC13062086, “A sstR2-targeted radiohybrid theranostic agent for PET imaging and β^- therapy with excellent preclinical performance” (npj Imaging, 2026).
# Target: T1, human serum albumin (HSA) (Homo sapiens, UniProt P02768)
# T1 construct: purchased Daicel, Tokyo, Japan Chiralpak HSA column (50 × 3 mm, 5 μm, H13 h-2433)
# Design: method as in earlier work
# Conditions: literature-known values for calibration curve ref 2-3 (SI; main text 45, 46)
# T1 sequence (P02768 25-609): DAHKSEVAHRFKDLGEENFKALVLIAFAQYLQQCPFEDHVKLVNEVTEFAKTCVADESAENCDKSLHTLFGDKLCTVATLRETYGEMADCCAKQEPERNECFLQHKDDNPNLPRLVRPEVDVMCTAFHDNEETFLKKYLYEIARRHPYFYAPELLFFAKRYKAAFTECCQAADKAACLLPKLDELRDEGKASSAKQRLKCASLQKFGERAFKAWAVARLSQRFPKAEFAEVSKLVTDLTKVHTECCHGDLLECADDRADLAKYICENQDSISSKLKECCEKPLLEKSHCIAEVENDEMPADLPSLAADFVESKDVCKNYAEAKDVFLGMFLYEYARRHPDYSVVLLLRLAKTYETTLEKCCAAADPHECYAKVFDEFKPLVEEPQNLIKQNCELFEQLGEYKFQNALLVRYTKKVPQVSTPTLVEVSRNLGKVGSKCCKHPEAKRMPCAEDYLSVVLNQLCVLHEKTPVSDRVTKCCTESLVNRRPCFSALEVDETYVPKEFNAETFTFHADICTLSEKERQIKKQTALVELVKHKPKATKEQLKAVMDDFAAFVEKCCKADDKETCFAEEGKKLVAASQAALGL
row,SMILES,HSA-binding [%]
1,Nc1ccccc1 [Aniline],14.06
2,COc1ccc(Cl)cc1C(=O)NCCc1ccc(S(=O)(=O)NC(=O)NC2CCCCC2)cc1 [Glibenclamide],99.00
3,Oc1ccccc1 [Phenol],20.69
4,O=C(O)c1ccccc1 [Benzoic acid],34.27
5,CCCN(CCC)S(=O)(=O)c1ccc(C(=O)O)cc1 [Probenecid],95.00
6,OCc1ccccc1 [Benzyl alcohol],13.15
